The values that follow come from US7153886B2, “Method for treatment of peripheral inflammation of a loop ileal artificial anus” (Tanabe Seiyaku Co., Ltd., priority 1999, dated 2006).

“Also recorded” adds a separate entry of the source. Structures can show the parent of a compound that is named as a salt.

Series [1] relates to intestinal mucosal injury induced by intra-intestinal infusion of acetic acid. The series is described as follows: Prophylactic or therapeutic effect on acetic acid-induced intestinal injury. The class given is in vivo. Particulars: Fischer rats. From the text:
Sulfodehydroabietic acid monosodium salt […] (hereinafter referred to as Ecabet sodium) of the active ingredient of the present invention was previously administered to Fischer rats, and the prophylactic or therapeutic effect thereof on intestinal mucosal injury induced by intra-intestinal infusion of acetic acid was studied. Namely, granules containing Ecabet sodium (0.5 g, trade name: Gastrome granule, containing 1.0 g of Ecabet sodium per 1.5 g, hereinafter simply referred to as Ecabet sodium-containing granules) were suspended in a physiological saline, and the mixture was injected intra-rectally to Fischer rats. One hour thereafter, a 25% acetic acid solution was intra-rectally injected to the rats. Two hours after the administration of acetic acid, the intestine was excised from the rats, and the histopathological changes in the surface of the intestinal inner wall was observed visually and with a microscope, and the injury of the intestinal mucosa was evaluated both macroscopically and histologically. In the control group, the same procedures were repeated except for that a physiological saline was administered instead of a suspension of Ecabet sodium-containing granules in a physiological saline. […] In addition, the degree of the intestine mucosal injury between the physiological saline-treated group and the Ecabet sodium-treated group was scored and compared according to the criteria as mentioned below, which was based on the method for Classification and Evaluation of Macpherson, B. R. et al., Digestion, 17, p. 135–150 (1978). The data is indicated in Table 1. • (1) Scoring criteria of degree of macroscopic injury: [table] • (2) Scoring criteria of degree of histological injury: [table]

In series [2] the test system is TNBS-induced enteritis; mucosal injury of the intestine induced by acetic acid. Briefly: Effect on TNBS-induced enteritis (followed by acetic acid). The class given is in vivo, Fischer rats. The procedure:
Ecabet sodium of the active ingredient of the present invention was administered to Fischer rats to which TNBS was previously intra-intestinally injected to induce chronic enteritis, and further acetic acid was administered to the rats. Prophylactic or therapeutic effect of Ecabet sodium on the mucosal injury of the intestine induced by acetic acid was studied.
Namely, a solution of TNBS (2,4,6-trinitrobenzenesulfonic acid) in 50% ethanol was injected intra-intestinally to Fischer rats at a dose of 50 mg per 1 kg of the body weight to give the TNBS-induced enteritis. Three weeks thereafter, Ecabet sodium-containing granules (0.5 g) was suspended in a physiological saline, and the mixture was administered intra-rectally to the rats. Thirty minutes thereafter, a 25% acetic acid solution was intra-rectally injected to the rats, and two hours after the acetic acid administration, the intestine was excised from the rats, and the intestinal mucosal injury thereof was scored and evaluated both macroscopically and histologically in the same manner as in Experiment 1 according to the Macpherson's method for Classification and Evaluation. In the control group, the same procedures were repeated except for that a physiological saline was administered instead of a suspension of Ecabet sodium-containing granules in a physiological saline.

Series [3] deals with intestinal Behçet's disease. Briefly: Clinical effects in a patient of Behçet's disease. It is filed as in vivo, human patient. Particulars: person. From the text:
The patient was a person, whose illness had been diagnosed as intestinal Behçet's disease accompanying with the multiple ulcerative lesion at the small intestine, and who had been medically treated (i.e., administration of a steroid, etc.). Then, the patient was operated surgically twice to excise the intestine on account of massive melena and regional peritonitis but the lesion of the remaining intestine was exacerbated, and further ileus, melena, and peritonitis symptoms caused by anastomotic recrudescence appeared. In order to excise the injured intestine, the abdomen of the patient was incised, but the injured area was so large that the intestine could not be excised, so that a loop ileal artificial anus was installed for administration of Ecabet sodium.
Ecabet sodium was administered to the patient mentioned above. That is, Ecabet sodium-containing granules (1.5 g) were orally administered twice a day. Further, said granules (1.5 g) were pulverized in a mortar, suspended in water, and the resultant was directly administered into the intestine through the artificial anus twice a day. After the administration of Ecabet sodium, the pain and the melena disappeared in a several days.

The test system of series [4] is large and small intestine Crohn's disease. Briefly: Clinical effects in a patient of Crohn's disease. The class given is in vivo, human patient. Particulars: person; one year after the start of the administration. Here is the method:
The patient was a person, whose illness was diagnosed from the pathological data as large and small intestine Crohn's disease. The exacerbation and the remission were mutually repeated, and the patient was treated with a conventional medicine, but the exacerbation of the anal lesion and the bleeding at the intestine could not be controlled. Although a surgical excision of the lesion was considered, the area of the lesion was so large that it could not be excised, and therefore, a loop ileal artificial anus was installed for administration of Ecabet sodium. Ecabet sodium was administered to the patient mentioned above. That is, Ecabet sodium-containing granules (1.5 g) were pulverized in a mortar, suspended in water, and the resultant was directly administered into the intestine through the artificial anus once a day.

The test system of series [5] is left-sided colon ulcerative colitis. The series is described as follows: Clinical effects in ulcerative colitis (Experiments 5-7). The class given is in vivo, human patient. Here is the method:
The patient was a person, whose illness was diagnosed as left-sided colon ulcerative colitis. The patient was medicated with mesalazine and a steroid, and treated with leukocytapheresis, but the rectal lesion was remained, and the symptoms were not improved any further. The inflammation was scored as Matts Grade 3 (Quarterly Journal of Medicine, New Series, No. 120, October 1961), and it was so frail that it bled when the endoscopic examination was carried out.
Ecabet sodium was administered to the patient mentioned above. That is, Ecabet sodium-containing granules (1.5 g) were pulverized in a mortar, suspended in a physiological saline (20 ml), and the resultant was rectally administered through the anus twice a day. After the administration, the inflammation was remitted to Matts Grade 2, and the inflammation area was decreased.
The patient was a person, whose illness was diagnosed as left-sided colon ulcerative colitis. The patient was medicated with mesalazine, predonine and a steroid, by which the inflammation was controlled to a degree of disseminated ulcer at the rectum, but further improvement was not obtained.
Ecabet sodium was administered to the patient mentioned above. That is, Ecabet sodium-containing granules (1.5 g) were pulverized in a mortar, suspended in a physiological saline (20 ml), and the resultant was rectally administered through the anus twice a day. After the administration, the ulcer was improved into a red scar.
The patient was a person, whose illness was diagnosed as left-sided colon ulcerative colitis. The patient was medicated with salazosulfapyridine and predonine, and treated with leukocytapheresis, but the inflammation condition at the rectum could not be controlled, and the bleeding and the melena lasted.
Ecabet sodium was administered to the patient mentioned above. That is, Ecabet sodium-containing granules (1.5 g) were pulverized in a mortar, suspended in a physiological saline (20 ml), and the resultant was rectally administered through the anus twice a day.

Series [6] deals with acute hemorrhagic rectal ulcer. The series is described as follows: Clinical effects in acute hemorrhagic rectal ulcer (Experiments 8-10). The class given is in vivo, human patient. Here is the method: The patient was a person, who was hospitalized for treatment of HCV-associated hepatocirrhosis, hepatocellular carcinoma and esophageal varices. After the endoscopic ossification treatment for the esophageal varices was done, an acute hemorrhagic rectal ulcer appeared at whole of the lower rectum. The patient was treated with total parenteral nutrition for 52 days, but the conditions were not improved. Ecabet sodium was administered to the patient mentioned above. That is, Ecabet sodium-containing granules (1.5 g) were suspended in water, and the resultant was injected through the anus twice a day for about 1.5 month. […] The patient was a person, who was hospitalized for treatment of the right thighbone break. During the treatment thereof, an acute hemorrhagic rectal ulcer occurred at whole of the lower rectum. The patient was treated with total parenteral nutrition, but the conditions were not improved. Ecabet sodium was administered to the patient mentioned above. That is, Ecabet sodium-containing granules (1.5 g) were suspended in water, and the resultant was injected through the anus twice a day for about 2.5 months. […] The patient was a person, who was hospitalized for treatment of pancreatic cancer. During the treatment, an acute hemorrhagic rectal ulcer appeared at whole of the lower rectum. Ecabet sodium was administered to the patient mentioned above. That is, Ecabet sodium-containing granules (1.5 g) were suspended in water, and the resultant was injected through the anus twice a day for about 1 month.

The test system of series [7] is ileum pouchitis accompanying with acute hemorrhagic ulcer. The series is described as follows: Clinical effects in ileum pouchitis. It is filed as in vivo, human patient. The following applies: Experiment 11, person; granules 1.5 g in water through the anus twice a day for about 4 months. The procedure: The patient was a person. During the postoperative treatment, ileum pouchitis accompanying with acute hemorrhagic ulcer appeared at the ileum pouch which was subjected to ileal pouch/anal anastomosis by the operation for ulcerative colitis. Ecabet sodium was administered to the patient mentioned above. That is, Ecabet sodium-containing granules (1.5 g) were suspended in water, and the resultant was injected through the anus twice a day for about 4 months.

The conditions of series [8]: compared with the disodium salt; cited from earlier work.
[9] abbreviates: Ecabet sodium-containing granules 0.5 g in saline intra-rectally 1 h before 25% acetic acid, intestine excised 2 h after acetic acid, mean ± s.e. of sum of scores (0-3) of 4 items.
[10] abbreviates: Fischer rats 3 weeks after TNBS 50 mg/kg, granules 0.5 g intra-rectally 30 min before 25% acetic acid, 2 h after acetic acid, P < 0.05 vs saline.

Regarding `CC(C)c1cc2c(cc1S(=O)(=O)O)[C@@]1(C)CCC[C@@](C)(C(=O)O)[C@@H]1CC2` [Ecabet sodium, (+)-(1R,4aS,10aR)-1,2,3,4,4a,9,10,10a-octahydro-1,4a-dimethyl-7-(1-methylethyl)-6-sulfo-1-phenanthrenecarboxylic acid 6-sodium salt pentahydrate], the “Degree of Histological Injury” value in series [1] (setting [9]) worked out at 2.3 ± 0.4; in series [2] (setting [10]) it was 4.6 ± 0.4. Further, the “Degree of Macroscopic Injury” value in series [1] (setting [9]) is reported as 1.3 ± 0.2; in series [2] (setting [10]), 3.9 ± 0.3. In series [1] (versus physiological saline-treated rats (injury broadly observed)), the “intestinal mucosal injury induced by acetic acid (observation)” value is reported as “hardly observed”. Moreover, the “intestinal mucosal injury (observation)” value in series [2] (TNBS-enteritis Fischer rats, versus physiological saline-treated rats) was “effectively inhibited”. Also, in series [3] (2 weeks after the start of the administration), the “ulcerative lesion in the endoscopic finding” value was “remarkably improved”. For the same compound, the recrudescence entry in series [3] (7 months after the start of the administration) is “has not been observed”. Moreover, the pain and melena entry in series [3] (granules 1.5 g orally twice a day plus 1.5 g through artificial anus twice a day, in a several days) is on record as “disappeared”. Also, the “injury of the intestinal mucosa (endoscope)” value in series [4] was “disappeared”. In series [5] (Experiment 5, person, granules 1.5 g in saline 20 ml rectally twice a day, Matts Grade 3 before), the “Inflammation, Matts Grade, after the administration” value is recorded as “Grade 2”. For the same compound, in series [5] (Experiment 5, person, granules 1.5 g rectally twice a day), the “Area of inflammation after the administration” value was “decreased; also recorded: reduced”. In addition, in series [5] (Experiment 5, 11 days after the start of the administration), the “inflammation of the intestine tissue at the lesion (endoscope)” value was “remarkably improved”. For the same compound, the “ulcer at the rectum after the administration (endoscope)” value in series [5] (Experiment 6, person, granules 1.5 g in saline 20 ml rectally twice a day, 18 days, intractable ulcer before) was “turned into a red scar; also recorded: Improvement into a red”. Moreover, the “inflammation condition after the administration” value in series [5] (Experiment 7, person, granules 1.5 g in saline 20 ml rectally twice a day, mild to moderate inflammation before) is on record as “only a slight erythema was remained; also recorded: Improvement into a slight”. Also, the “inflammation of the lesion (endoscope)” value in series [5] (Experiment 7, 12 days after the start of the administration) is on record as “almost disappeared”. Further, the “acute hemorrhagic rectal ulcer outcome” value was “cured without any cicatricial stenosis” in series [6] (Experiment 8, person, granules 1.5 g in water through the anus twice a day for about 1.5 month); “cured without any cicatricial stenosis” in series [6] (Experiment 9, person, granules 1.5 g in water through the anus twice a day for about 2.5 months); “cured without any cicatricial stenosis” in series [6] (Experiment 10, person, granules 1.5 g in water through the anus twice a day for about 1 month). The “ileum pouchitis and ulcer outcome” value in series [7] is “cured without any cicatricial stenosis”.
Take `CC(C)c1cc2c(cc1S(=O)(=O)[O-])[C@@]1(C)CCC[C@@](C)(C(=O)O)[C@@H]1CC2.[Na+]` [Sulfodehydroabietic acid monosodium salt]: in series [8], the hygroscopicity entry is recorded as “less hygroscopic” and the stability entry is listed as “more stable”.
